Laboratory results reported in patent US10328092B2, “Methods and compositions for treatment of drug addiction” (The Royal Institution for the Advancement of Learning / …, priority 2015, dated 2019).

What was measured:
[1] = test system: adult microglial cells; test: TNFα mRNA in cultured adult mouse microglia; assay type: cell-based; conditions: cocaine 1 μm, 3 hours
Procedure: (SEQ ID NO: 1) [200 nM]; mouse TNFα reverse, […] (SEQ ID NO: 2) [200 nM]; mouse GAPDH forward, […] (SEQ ID NO: 3) [300 nM]; mouse GAPDH reverse, […] (SEQ ID NO: 4) [300 nM]; rat TNFα forward, […] (SEQ ID NO: 1) [600 nM]; rat TNFα reverse, […] (SEQ ID NO: 5) [600 nM]; rat cyclophilin forward, […] (SEQ ID NO: 6) [500 nM]; rat cyclophilin reverse, […] (SEQ ID NO: 7) [500 nM]. After 40 cycles, the Ct values were determined.
Adult male C57BL/6 mice (8-12 weeks) underwent cardiac perfusion with Hank's Balanced Salt Solution (HBSS) and whole brains were removed. Cortices and striata were dissected, cut in to small pieces and subjected to enzymatic digestion with the Neural Tissue Dissociation Kit (P) (Miltenyi Biotech, US cat no. 130-092-628), as per manufactures instructions. Tissue was homogenised and resuspended in 35% isotonic Percoll, overlayed with HBSS and spun at 400 g for 45 mins for the removal of myelin. Pure populations of microglial cells were obtained through magnetic bead cell sorting using CD11b microbeads (Miltenyi, cat no. 130-093-634). Aliquots from positive and negative bead selected fractions were removed for cell staining to assess cell purity. […] Cells were acquired using a BD FACS Canto II and analyzed using BD FACSDiva software. […]

[2] = test system: mice; test: Basal locomotion; assay type: in vivo, mouse
Procedure: To determine whether the low TNFα response induced by MPLA can affect the behavioural response to cocaine, it was first assessed if MPLA can alter the basal locomotion of mice. Mice were injected with 10 ug of MPLA, and tested 24 hrs later. No difference in basal locomotion was observed (n=4), compared with saline injected control mice (FIG. 2).
Locomotion was monitored in 30×30 cm plexiglass boxes by the EthoVision video-tracking system (Noldus) and performed near the end of the light phase of the light-dark cycle under dim red light. After habituating animals to handling, mice received IP injections of saline or cocaine and their activity was recorded for 15 min. […] Following 10 days without injections (withdrawal), mice receive a challenge dose of cocaine (15 mg/kg) and locomotor activity again assessed (day 17). Total distance traveled and stereotypy were evaluated from video by EthoVision. For stereotypy, the frequency of which the mouse stops moving (#pauses/min) was measured using a threshold start velocity of 2.00/second and a threshold stop velocity of 0 cm/s. The number of turns per minute (# turns/min) was measured by calculating the frequency for which the path of the mouse turns over a minimum distance of 3.00 cm. Velocity was assessed as the mean distance traveled (cm) over time (s).

[3] = test system: TNFα; test: TNFα mRNA / protein in ventral striatum (NAc) after in vivo treatment; parameters: species or system mouse; conditions: for TNFα mRNA in the ventral striatum: single injection of MPLA 10 μg
Procedure: To determine the effect of in vivo cocaine exposure on TNFα levels in the ventral striatum, TNFα mRNA and protein levels were measured in mice given intraperitoneal injections of saline or cocaine. […] To understand the impact of TNFα on synaptic function in the NAc, AMPA/NMDA ratios were measured at glutamatergic synapses on MSNs in the NAc core. Alteration in NAc core AMPA receptors are involved in the expression of behavioral sensitization to psychostimulants (Kalives, 2009).
Mice (8-10 weeks) were perfused and their brains submerged overnight in 4% PFA, cryoprotected with 30% sucrose, and cut in 30 μm thick coronal slices using a cryostat. The sections were incubated for 4 hours with blocking solution (2% normal goat serum, 3% BSA, 0.2% Triton X-100 in PBS) before incubation overnight at 4 C with primary antibodies in blocking solution (rabbit anti-Iba1 antibody [019-19741, Wako; 1:800; RRID: AB_2566825], chicken anti-GFAP antibody [AB5541, Millipore; 1:500; RRID: AB_177521], rabbit anti-NeuN [ab104225, Abcam, 1:400; RRID: AB_10711153], and rabbit anti-TNFα antibody [ab6671, Abcam, 1:100; RRID: AB_305641] or mouse anti-TNFα antibody [ab1793, Abcam, 1:100; RRID: AB_302615]). Sections were washed (2×15 min with PBST [0.05% Tween20] and 1×15 min with PBS at RT) and incubated for 2 hrs at room temperature in secondary antibodies (anti-rabbit, anti-chicken, or anti-mouse IgG-conjugated Alexa Fluorochrome [Invitrogen; 1:400]). Sections were washed and briefly (<30 seconds) incubated with Hoechst 33342 [H1399, Molecular Probes; 1:10,000] in PBS. The stained sections were imaged using an Olympus FluoView FV1000 confocal microscope with Fluoview imaging software (FV10-ASW). Images of the ventral striatum (nucleus accumbens core and shell) were acquired with a 40× or 60× objective and stacks of 25-30 optical sections (1 μm per section) of depth were Z-projected into a single window and analysed using ImageJ software (NIH).
The number of Iba1+ microglia were manually counted from 212×212 μm (60× objectives) or 317×317 μm (40× objectives) images. TNFα intensity was measured using the mean grey value of the entire image while Iba1 intensity measurements were obtained using a thresholded area to highlight only the microglia. Cell body area (μm^2) was measured based on Iba1 staining and using the freehand selection tool. Additional analysis of microglia morphology in saline and cocaine treated mice was done using IMARIS software (Bitplane). […] The following parameters were analyzed for 40 microglia per group: total process length (sum of length of all processes), total process volume, process diameter and number of branch points and terminals. […]
After 40 cycles, the Ct values were determined.

Row | Compound | TNFα mRNA, cultured adult microglia [1] | basal locomotion, distance ([2]; 24 hours after IP injection of 10 μg MPLA) [cm] | basal locomotion vs saline injected mice ([2]; 24 hours after i.p. injection of 10 μg MPLA) | TNF-α levels in vivo, lower than LPS ([3]; compared with LPS) [fold] | TNFα mRNA in the ventral striatum ([3]; 4 hours) | TNFα mRNA in the ventral striatum ([3]; 24 hours)
1 | COC(=O)[C@H]1[C@@H](OC(=O)c2ccccc2)C[C@@H]2CC[C@H]1N2C [cocaine] | 95 % of control | – | – | – | – | –
2 | monophosphoryl lipid A [MPLA] | – | 5415±378 | No significant differences | 10 | significantly increases | significantly increases
